A short description of series [1]: Stability Test 1 (60° C.), storage for a week; HPLC, powder X-ray diffraction, appearance. The following applies: for residual percentage (chemical purity %): HPLC; for crystal form: powder X-ray diffraction. It counts as physicochemical. As to the method:
(§1) The powder X-ray diffraction data of each crystal polymorph were measured by X-ray diffractometer RINT 2100 ultima+manufactured by Rigaku Denki Corporation (measuring conditions; CuK α rays, 40 kV in X-ray tube voltage, 40 mA in X-ray tube current). The 2θ value of diffraction pattern by the powder X-ray diffractometry may deviate in some cases by a factor of about 0.5° depending on the sample conditions and measuring conditions. In addition, due to the properties of data, a total diffraction pattern of the powder X-ray diffractometry is important for the identification of crystals. The TG/DTA measurements of each crystal polymorph were conducted by thermogravimetry analyzer (TG/DTA) ThermoPlus 2 series TG8120 manufactured by Rigaku Denki Corporation (measuring conditions; temperature rising rate 10° C./minutes, samplepan (Al), reference (Al2O3), under a nitrogen atmosphere). Melting points of each crystal were searched from differential thermal analysis (DTA) endothermic peak (extrapolation). The solid state C^13-NMR spectrums of each crystal polymorph were measured by AVANCE/DRX500 manufactured by Bruker (measuring conditions; accumulated counts 512 times, contact time 3 msec, repeated time 5 sec, probe 4 mm MAS, observed frequency 125.77 Mhz, spinning rate 10000 Hz).
After ethyl (−)-2-[4-[2-[[(1S,2R)-2-hydroxy-2-(4-hydroxyphenyl)-1-methylethyl]amino]ethyl]-2,5-dimethylphenoxy]-acetate hydrochloride obtained in Example 1 was stored at 60° C. for a week, chemical stability was determined by measuring the residual percentage of ethyl (−)-2-[4-[2-[[(1S,2R)-2-hydroxy-2-(4-hydroxylphenyl)-1-methylethyl]amino]ethyl]-2,5-dimethylphenoxy]acetate hydrochloride by HPLC and polymorphic stability was examined by the powder X-ray diffraction measurement.

A short description of series [2]: Stability Test 2 (140° C.), heating, powder X-ray diffraction. It counts as physicochemical. The following applies: after heating to 140° C. Here is the method: as §1, with “Hz). […]” for “Hz).”
[3] abbreviates: after 1 week storage at 60° C., hydrochloride.
The mark [4] stands for this setting: after 1 week storage at 60° C., listed as crystal form C, hydrochloride.

The results in this text go back to patent publication US7763654B2, “Crystal polymorph of hydroxynorephedrin derivative hydrochloride” (Kissei Pharmaceutical Co., Ltd., priority 2005, dated 2010).

With `CCOC(=O)COc1cc(C)c(CCN[C@@H](C)[C@H](O)c2ccc(O)cc2)cc1C.Cl` [crystalline form C, ethyl (−)-2-[4-[2-[[(1S,2R)-2-hydroxy-2-(4-hydroxyphenyl)-1-methylethyl]amino]ethyl]-2,5-dimethylphenoxy]-acetate hydrochloride], in series [1] (setting [3]), the “residual percentage (chemical purity %)” value was “constant”, the appearance result is “no change in appearance” and the crystal form result is “polymorphic transformation did not occur”. Further, in series [1] (setting [4]), the “residual percentage (chemical purity %)” value stood at 99.6%, the appearance result is recorded as “white” and the crystal form result is recorded as “crystal form C”. Besides, in series [1] (at start), the appearance entry is given as “white”, the “residual percentage (chemical purity %)” value turned out to be 99.6% and the crystal form result is listed as “crystal form C”. Besides, the “change of the crystalline form” value in series [2] is “still crystalline form C”.
